Reference: PMC12621569 (Antiviral research, 2025)
Where two headings read alike, the source gives them in different places.

How the values were obtained:
[1] = system: type B versus type A viruses; settings: cited from earlier work
[2] = system: influenza B virus infections; settings: human, in vivo; cited from earlier work
A(H3N2) viruses = assay type: cell-based, influenza A(H3N2) virus; settings: read-out: Median EC50
B/Victoria viruses = assay type: cell-based, influenza B/Victoria lineage virus
type A viruses = settings: cited from earlier work
A(H1N1)pdm09 viruses = assay type: cell-based, influenza A(H1N1)pdm09 virus; settings: read-out: Median EC50
[3] = biological target: A (H3N2) neuraminidase (NA) (Influenza A virus (H3N2), UniProt V9SU56); assay type: biochemical
[4] = biological target: B/Victoria neuraminidase (NA); assay type: biochemical, influenza B/Victoria lineage virus
[5] = biological target: A (H1N1)pdm09 neuraminidase (NA); assay type: biochemical, influenza A (H1N1)pdm09 virus; settings: read-out: IC50 Median

CCOC(=O)C1=C[C@@H](OC(CC)CC)[C@H](NC(C)=O)[C@@H](N)C1 [Oseltamivir, oseltamivir]
lower activity against type B versus type A viruses [1]: 47- to 80 fold | clinical effects against influenza B compared to influenza A virus infections [2]: reduced effects

O=C1c2c(O)c(=O)ccn2N([C@@H]2c3ccccc3SCc3c2ccc(F)c3F)[C@@H]2COCCN12 [Baloxavir, baloxavir]
EC50 (A(H3N2) viruses): 0.58 nM | median EC50 for B/Victoria viruses, fold higher than influenza A subtypes (B/Victoria viruses): 5–7 fold | EC50 (B/Victoria viruses; read-out: Median EC50): 4.06 nM | elevated baloxavir EC50 (type A viruses): • Treatment-emergent • Rarely as natural polymorphisms • Confer elevated baloxavir EC50 (4–112-fold) | EC50 (A(H1N1)pdm09 viruses): 0.8 nM | effectiveness in treatment [2]: more effective than oseltamivir

CCC(CC)[C@H](NC(C)=O)[C@@H]1[C@H](O)[C@@H](C(=O)O)C[C@H]1N=C(N)N [Peramivir, peramivir]
IC50 ([3]; read-out: IC50 Mean ± SD): 0.09 ± 0.02 nM | IC50 ([3]; read-out: IC50 Median): 0.08 nM | IC50 ([3]; read-out: IC50 Range): 0.05 to 0.25 nM | IC50 ([4]; read-out: IC50 Mean ± SD): 0.35 ± 0.11 nM | IC50 ([4]; read-out: IC50 Median): 0.33 nM | IC50 ([4]; read-out: IC50 Range): 0.14 to 0.88 nM | IC50 [5]: 0.07 nM
